# Laboratory results: patent US20200046746A1, “ANTI-AGING COMPOSITIONS AND METHODS FOR USING SAME” (Prescient Pharma LLC, priority 2015, published 2020)
# Values joined by “and” are separate entries in the source; they are usually repeats but may differ in a detail not shown here. Identical values can stand only once.
# Experiments:
# [1] = test system: normal human colon fibroblast cell line CCD 841 CoN (CRL-1790, ATCC); assay: Senescence beta-galactosidase staining of aged normal human fibroblasts (Example 1); format: cell-based; conditions: lithium carbonate 0.15 μM and/or glycyrrhizic acid 0.25 mM; for effect on beta-galactosidase staining of the fibroblasts in comparison with non-treated controls or monotherapy / % green stained (average green area with and without background subtraction) / % green staining (green stained area of total original area) / visible positive beta-Galactosidase staining: 48 hours; for % green staining: per flask, 48 hours treatment, higher values = more aged cells; for % green stained (average green area with and without background subtraction) / % green staining (green stained area of total original area): per image, substance assigned through Table 3 (Area = Image #); for visible positive beta-Galactosidase staining: visual, light microscope 100× magnification
# Procedure: Aging-associated beta-galactosidase is widely used as a biomarker of senescence. Here we investigated senescence-associated-beta-galactosidase activity of human colon fibroblast cells by visual assessment.
# In this Example, the effect of treatment with lithium and glycyrrhizic acid separately, and as a fixed combination, was evaluated on normal human colon fibroblast cell line CCD 841 CoN (CRL-1790, ATCC).
# Group 4 (flasks 10-12, control), the medium was changed to fresh compete EMEM medium without drugs as controls.
# FIGS. 1-4 show pictures of the staining results for each of the groups, respectively.
# Digital pictures showing the staining results for each of the 12 flasks were then independently examined and scored for percentage of area of green (positive) staining based on pixels, with and without background subtraction.
# Higher values reflect more intensive green staining which corresponds to more aged cells.
# [2] = test system: wild-type N2 Bristol strain of C. elegans; assay: C. elegans longevity study (Example 4); format: in vivo; conditions: for longevity and survival (longevity effect): wild type C. elegans, lithium carbonate 0.15 or 15 μM
# Procedure: In this fourth Example, the effect of treatment with lithium and Glycyrrhizic acid separately, and as a fixed combination, was further evaluated on the wild-type N2 Bristol strain of C. elegans. Worm stocks were maintained on nematode growth medium (NGM) dishes containing 10 μg/mL cholesterol (Cat. No. C8667; Sigma-Aldrich, Saint Louis, Mo., USA). Dishes were seeded with OP50 Escherichia coli as a food source. Twelve polystyrene petri dishes (35 mm diameter) were prepared by filling with NGM agar containing […] cholesterol, and 25 μM 5-Fluoro-2′-deoxyuridine to suppress reproduction (FUDR; Cat. No. F0503; Sigma-Aldrich, Saint Louis, Mo., USA). The dishes were seeded with OP50 Escherichia coli as a food source. Duplicate dishes were used for each group. The treatment drug was dissolved in deionized water, and added to the dishes for the groups as explained below: […] Group #5: Glycyrrhizic acid in concentration of 0.25 mM. Group #6: untreated (control). NGM-agar treatment plates containing cholesterol (10 μg/mL) and 25 μM 5-Fluoro-2′-deoxyuridine (FUDR; Cat. No. F0503; Sigma-Aldrich, Saint Louis, Mo., USA) to suppress reproduction. […] The survival data for the various groups are also depicted in FIG. 17.
# [3] = lithium carbonate 0.15 μM, in the combination plus glycyrrhizic acid 0.25 mM
# [4] = lithium carbonate 15 μM, in the combination plus glycyrrhizic acid 0.25 mM
smiles,measurement,setting,value
"CC1(C)[C@@H](O[C@@H]2O[C@@H](C(=O)O)[C@H](O)[C@@H](O)[C@@H]2O[C@H]2O[C@@H](C(=O)O)[C@H](O)[C@@H](O)[C@@H]2O)CC[C@]2(C)[C@@H]1CC[C@@]1(C)[C@H]2C(=O)C=C2[C@H]3C[C@@](C)(C(=O)O)CC[C@@]3(C)CC[C@@]21C [G acid, (3β,20β)-20-carboxy-11-oxo-30-norolean-12-en-3-yl 2-O-β-D-glucopyranuronosyl-α-D-glucopyranosiduronic acid]",effect on beta-galactosidase staining of the fibroblasts in comparison with non-treated controls or monotherapy,[1],did not appear to have significant effect
same,% green staining,[1],9.1% and 10.03% and 6.91%
same,% green stained (average green area with and without background subtraction),[1],6.908% and 9.104% and 10.03%
same,% green staining (green stained area of total original area),[1],6.91% and 9.1% and 10.03%
same,visible positive beta-Galactosidase staining,[1],stained positively
same,Age in days at % mortality 25%,[2]; glycyrrhizic acid 0.25 mM,14 days
same,Age in days at % mortality 50%,[2]; glycyrrhizic acid 0.25 mM,16 days
same,Age in days at % mortality 75%,[2]; glycyrrhizic acid 0.25 mM,18 days
same,Age in days at % mortality 90%,[2]; glycyrrhizic acid 0.25 mM,19 days
same,Age in days at % mortality 100%,[2]; glycyrrhizic acid 0.25 mM,20 days
same,Restricted mean Days,[2]; glycyrrhizic acid 0.25 mM,16.06 days
same,longevity and survival (longevity effect),[2]; glycyrrhizic acid 0.25 mM,not observed
"O=C([O-])[O-].[Li+].[Li+] [Li, lithium carbonate]",effect on beta-galactosidase staining of the fibroblasts in comparison with non-treated controls or monotherapy,[1],did not appear to have significant effect
same,% green staining,[1],6.25% and 2.83% and 5.24%
same,% green stained (average green area with and without background subtraction),[1],2.828% and 6.253% and 5.243%
same,% green staining (green stained area of total original area),[1],2.83% and 6.25% and 5.24%
same,visible positive beta-Galactosidase staining,[1],stained positively
same,Age in days at % mortality 100%,[2]; lithium carbonate 0.15 μM,19 days
same,Age in days at % mortality 25%,[2]; [3],13 days
same,Age in days at % mortality 50%,[2]; [3],15 days
same,Age in days at % mortality 75%,[2]; [3],16 days
same,Age in days at % mortality 90%,[2]; [3],18 days
same,Restricted mean Days,[2]; [3],14.88 days
same,Age in days at % mortality 100%,[2]; lithium carbonate 15 μM,19 days
same,Age in days at % mortality 25%,[2]; [4],14 days
same,Age in days at % mortality 50%,[2]; [4],15 days
same,Age in days at % mortality 75%,[2]; [4],16 days
same,Age in days at % mortality 90%,[2]; [4],18 days
same,Restricted mean Days,[2]; [4],14.56 days
same,longevity and survival (longevity effect),[2]; glycyrrhizic acid 0.25 mM,not observed
